In one series the test system is HeLa EGFP-Parkin cells. Put plainly: Co-recruitment of autophagy receptors to mitochondria (immunofluorescence). In kind it is cell-based, human. The procedure:
Cells were grown on poly-D-lysine coated glass coverslips. After treatments, cells were fixed in 4% paraformaldehyde and permeabilized using 1% Triton X-100, for each 10 min. Cells were blocked in 10% goat serum. Primary and secondary antibodies were diluted in 1% BSA/PBS and each incubated for 1 h at RT. Primary antibodies used: DNA (mouse, 1:250, Progen, AC-30-10), NBR1 (mouse, 1:100, Abnova H00004077-M01), NDP52 (rabbit, 1:400, Proteintech, 12229-1-AP), OPTN (mouse, 1:200, Santa Cruz, sc-166576), p62 (mouse, 1:400, BD Biosciences, 610832), pSer65-Ub (rabbit, 1:500, in-house (Fiesel et al., EMBO Reports (2015) 16:1114-30; Fiesel et al., (2015) Autophagy 11:2125-2126)), TAX1BP1 (rabbit, 1:200, Cell Signaling, #5105), TOM20 (mouse, 1:100, Santa Cruz, sc-17764), TOM20 (rabbit, 1:2000, Proteintech, 11802-1-AP). Secondary antibodies conjugated to AlexaFluor-568 or-647 (Invitrogen) were diluted 1:1000. Hoechst 33342 (Invitrogen) was diluted 1:5000 to counterstain the nuclei.
To validate the activation of Parkin further downstream in the pathway, co-recruitment of endogenous autophagy receptors to mitochondria in HeLa EGFP-Parkin cells was analyzed. These dual adaptors recognize pSer65-Ub chains on damaged mitochondria and facilitate their engulfment by autophagosomal membrane via their interaction with LC3 proteins (Lazarou et al., Nature (2015) 524:309-14; Heo et al., Mol. Cell (2015) 60:7-20).

Series [1] can be described thus: Metabolic stability in mouse liver microsomes. In kind it is in vitro ADME. To be noted: 2 μM, 40 minutes, mouse hepatic microsomes. The method, then: Metabolic stability was defined as the percentage of parent compound lost over time in the presence of a metabolically active test system, such as rodent liver microsomal fractions.
Mouse hepatic microsomes were isolated from pooled (50), perfused livers of BALB/c male mice according to the standard protocol (Hill, J. R. in Current Protocols in Pharmacology 7.8.1-7.8.11, Wiley Interscience, 2003). The batch of microsomes was tested for quality control using imipramine, propranolol and verapamil as reference compounds. Microsomal incubations were carried out in 96-well plates in 5 aliquots of 40 μL each (one for each time point). Liver microsomal incubation medium contained PBS (100 mM, pH 7.4), MgCl2 (3.3 mM), NADPH (3 mM), glucose-6-phosphate (5.3 mM), glucose-6-phosphate dehydrogenase (0.67 units/mL) with 0.42 mg of liver microsomal protein per mL. Control incubations were performed replacing the NADPH-cofactor system with PBS. Compounds 1-4 and 31 (2 μM, final solvent concentration 1.6%) were each incubated with microsomes at 37° C. while shaking at […]. Incubations were performed in duplicates. Five time points over 40 minutes were analyzed. The reactions were stopped by adding 12 volumes of 90% acetonitrile-water to incubation aliquots, followed by protein sedimentation by centrifuging at 5500 rpm for 3 minutes. Supernatants were analyzed using the HPLC system coupled with tandem mass spectrometer. The elimination constant (kel), half-life (t1/2) and intrinsic clearance (Clint) were determined in a plot of ln(AUC) versus time, using linear regression analysis:
[formula] [formula] In order to indicate the quality of the linear regression analysis, the R (correlation coefficient) values were provided. In some cases, the last time point was excluded from the calculations to ensure acceptable logarithmic linearity of decay. C. Results
In general terms: Liver microsomes are a subcellular fraction often used to study metabolism.

The next series has as its system HepG2 cells. As to the kind of experiment: Cytotoxicity assay (resazurin), HepG2 cell proliferation inhibition. In kind it is cell-based. Particulars: Homo sapiens, 24 hours. The procedure: Compounds 1-4 and 31 were tested in a cytotoxicity assay. The assay was based on the conversion of the non-fluorescent dye resazurin to the fluorescent compound rezorufin in the reducing environment of living cell cytoplasm. The more living cells in a sample result in higher fluorescence, while less living cells result in lower fluorescence.
HepG2 cells were cultivated in a humidified atmosphere at 37° C. and 5% CO2 in 75 cm^2 flasks to 80-90% of confluence and split twice per week with a subcultivation ratio of 1:4. The cell layer was rinsed with PBS to remove all traces of serum. Then 3.0 mL of solution containing 0.25% (w/v) trypsin and 0.53 mM EDTA was added to the flask and incubated about 10 minutes. The HepG2 cells were detached using a scraper and re-suspended in DMEM containing 10% FBS and 2 mM glutamine. The cell suspension with a final concentration of 5×10^5 cells/mL was dispensed into sterile 96-well black wall clear flat bottom plates as previously described (McMillian et al. (2002) Cell Biol. Toxicol. 18(3):157-173; Mulvihill et al. (2009) Future Med. Chem. 1(6):1153-1171) and the test compounds were added.
The compound DMSO stock solutions were diluted with PBS to achieve an intermediate concentration of 1 mM. The cell proliferation assessment was performed at different concentrations of compounds ranging from 0.1 μM to 100 μM. Doxorubicin at a final concentration of 20 μM was used as a positive control. After compound addition, cells were incubated for 24 hours in a humidified atmosphere at 37° C. and 5% CO2.
Resazurin was added to the final concentration (50 μM) and incubated for 4 hours under the same conditions. Presence of rezorufin (cell viability) was quantified by measuring fluorescence (Ex—490 nm, Em—540 nm; see Vega-Avila and Pugsley (2011) Proc. West Pharmacol. Soc. 54:10-14).
The percent of cell proliferation inhibition was calculated by applying the following formula: […]
(Alamar Blue is a resazurin reagent that responds to reducing activity.)

A word on the inhibition: it is the drop in the measured response relative to a control, in per cent.

Consider `O=C(Cn1cnc2c1CCCC2)Nc1ccc(-c2ccccc2)cc1` [Compound 1], for which the “co-localization of OPTN, NBR1, NDP52, p62 and TAX1BP1 with Parkin on damaged mitochondria” value (“co-localization of OPTN, NBR1, NDP52” below) in the series with HeLa EGFP-Parkin cells is on record as “increased co-localization”. For the same molecule, in series [1], the “metabolic stability” value is on record as “moderate stability”. Besides, in the series on HepG2 cells, the inhibition at 0.1 µM is -0.1%, the inhibition at 0.3 µM is -2%, the inhibition at 1 µM is -0.6% and the inhibition at 3 µM was -1.8%. Further, in the series on HepG2 cells, the inhibition at 10 µM is -3.9%, the inhibition at 30 µM is -2.5% and the inhibition at 100 µM turned out to be 0.1%.

Turning to `O=C(Cn1ccnc1-c1ccccn1)Nc1ccc(-c2ccccc2)cc1` [Compound 4], the “co-localization of OPTN, NBR1, NDP52” value with HeLa EGFP-Parkin cells is recorded as “increased co-localization”. In addition, the “metabolic stability” value in series [1] is “low stability”. In the series with HepG2 cells, the inhibition at 0.1 µM was -1.8%, the inhibition at 0.3 µM is 0.1%, the inhibition at 1 µM is 0.8% and the inhibition at 3 µM was 5.4%. In the series on HepG2 cells, the inhibition at 10 µM is -1.4%, the inhibition at 30 µM was -3.8% and the inhibition at 100 µM was -5.5%.

As for `CC(C)(C)Sc1ccc(NC(=O)Cn2ccnc2)cc1` [Compound 3], the “co-localization of OPTN, NBR1, NDP52” value in the series on HeLa EGFP-Parkin cells is recorded as “increased co-localization”. For the same molecule, the “metabolic stability” value in series [1] is recorded as “high metabolic stability”. In the series on HepG2 cells, the inhibition at 0.1 µM is -2.1%, the inhibition at 0.3 µM turned out to be 0.2%, the inhibition at 1 µM was 2.4% and the inhibition at 3 µM amounted to 3.9%. In the series on HepG2 cells, the inhibition at 10 µM was determined as 2.6%, the inhibition at 30 µM was -0.1% and the inhibition at 100 µM amounted to 0.5%.

For the molecule `CC(C)c1nccn1CC(=O)Nc1ccc(-c2ccccc2)cc1` [Compound 2], the “co-localization of OPTN, NBR1, NDP52” value in the series with HeLa EGFP-Parkin cells is given as “increased co-localization”. Besides, in series [1], the “metabolic stability” value was “moderate stability”. In the series with HepG2 cells, the inhibition at 0.1 µM is -1.8%, the inhibition at 0.3 µM is 2.8%, the inhibition at 1 µM was 1.2% and the inhibition at 3 µM came to 5.6%. In the series with HepG2 cells, the inhibition at 10 µM worked out at 2.6%, the inhibition at 30 µM was 2.4% and the inhibition at 100 µM was found to be 14.7%.

Consider `Cc1nc2c(c(N3CCCN(Cc4ccccc4)CC3)n1)CCCC2` [Compound 31], for which the “co-localization of OPTN, NBR1, NDP52” value in the series on HeLa EGFP-Parkin cells is on record as “increased co-localization”. In addition, the “metabolic stability” value in series [1] is recorded as “low stability”. Moreover, in the series with HepG2 cells, the inhibition at 0.1 µM amounted to 2%, the inhibition at 0.3 µM is -0.8%, the inhibition at 1 µM was -1.5% and the inhibition at 3 µM is -0.9%. Also, in the series on HepG2 cells, the inhibition at 10 µM was -2.2%, the inhibition at 30 µM is -5.4% and the inhibition at 100 µM is -17.7%.
